{"source": "patent US12485182B2", "about": "“Proteoglycan mimetics for enhanced wound healing, angiogenesis, and vascular repair” (The Regents of the University of California, priority 2018, dated 2025)", "key": {"HMVEC monolayer": {"test_system": "HMVEC monolayer", "assay": "Endothelial monolayer permeability (transwell, RITC-dextran)", "assay_type": "cell-based, human", "details": "by 72 hours", "procedure": "The following day, an additional 50,000 cells were seeded to each insert and allowed to grow for another 24 hours. Media was then removed and replaced with 0.5 mL media to the bottom well and 0.1 mL of treatment media to the insert for 10 minutes. Treatment was removed and 0.3 mL of 1 mg/mL RITC-dextran in media was then added to each transwell insert and allowed to permeate for 30 minutes. Sample permeate was then assayed on a SpectraMax M5 plate reader for fluorescence (excitation: 570 nm; emission: 590 nm). RITC-dextran solutions and sample permeates were then aspirated and replaced with another 0.1 mL of treatment media in the transwell insert and 0.5 mL media in the bottom chamber. This procedure was repeated daily over 4 days. Treatments were also compared to inserts with cells removed by rubbing away with a pipette tip to determine the barrier efficacy of the monolayer and the degree of increased permeability."}, "[1]": {"test_system": "chick chorioallantoic membrane", "assay": "Ex ovo CAM assay, treatments eluting from collagen gels", "assay_type": "in vivo", "details": "after 24 hours", "procedure": "Fertilized Hyline eggs obtained from the Avian Facility at UC Davis were incubated at 37° C. for 72 hours with 6 rotations per day at 80% humidity in a Grumbach egg incubator. On day 3, eggs were cracked open into disinfected weighboats (VWR) and covered with lids from square petri dishes (Fisher), and the embryos developed over a week in the incubator. On day 10, treatments encapsulated in collagen I gels were gently placed on the developing CAM. For experiments involving treatments freely eluting from the collagen gels, 100 μL of gel was polymerized in a 10-mm diameter rubber mold against a sterilized glass slide, and 1 treatment gel and 1 control gel was placed per CAM. The number of vessels in a 2-mm radius immediately surrounding the gel was manually counted in imageJ immediately after placement and 24 hours later to determine changes surrounding vessels. The change in vessels over 24 hours for treatment gels were normalized to the respective change in the control gel on the same developing embryo."}, "ischemic wounds": {"test_system": "ischemic wounds", "details": "exogenous VEGF; cited from earlier work"}, "platelets [2]": {"test_system": "platelets", "assay": "Attachment of platelets to peptide-treated surfaces", "assay_type": "cell-based", "details": "biotin-peptide on Avidin-coated wells", "from_the_text": "(§1) FIG. 33. Attachment of cells and platelets to LXW7 and GRGD (SEQ ID NO: 2) treated surfaces. (A) Images of attached HCAECs (left panels), THP-1 monocytes (middle panels) and platelets (right panels) on surfaces treated by D-Biotin (a-c) (control), LXW7 (d-f) or GRGD (SEQ ID NO: 2) (g-i). Scale bars in a, b, d, e, g and h are 50 μm. Scale bars in c, f and i are 20 μm. (B) The number of cells or platelets attached on different treated surfaces were quantified and statistical analyses were performed. Data were expressed as mean±standard deviation: **p<0.01 (n=4).\n(§2) Using primary artery-derived ECs and blood-derived EPCs as living probes to screen One-Bead-One-Compound (OBOC) combinatorial peptide libraries, several high-affinity binding ligands against the αvβ3 integrin on the surface of EPCs/ECs were identified. […] The LXW7 peptide, when grafted to surfaces, supports adhesion and spreading of EPCs and human coronary ECs, but not platelets or monocytes. […] After washing with PBS and blocking with 1% BSA wells were ready for cell attachment with 5×10^4 HCAECs or THP-1 monocytes suspended in the respective maintenance medium, or freshly isolated platelets at a density of 5×10^7 platelets/cm^2 incubated for 16 h at 37° C., 5% CO2. […] Quantification of images was performed using the Image J software (NIH)."}, "THP-1 monocytes [3]": {"test_system": "THP-1 monocytes", "assay": "Attachment of THP-1 monocytes to peptide-treated surfaces", "assay_type": "cell-based", "details": "biotin-peptide on Avidin-coated wells", "from_the_text": "as §1, §2"}, "VEGFR2": {"test_system": "VEGFR2", "assay": "Western-blot, phosphorylation of VEGFR2 (Tyr1175)", "assay_type": "cell-based", "details": "surface-grafted LXW7", "from_the_text": "(§3) FIG. 34. Effects of LXW7 on EC biological functions. (A) Proliferation of ECs on LXW7-treated surfaces and D-biotin treated surface (control) assessed by MTS assay. Data were expressed as mean±standard deviation: **p<0.01, ***p<0.001 (n=4). (B) Western-blot analysis of the effect of LXW7 on phosphorylation of VEGFR2 (Tyr1175) and phosphorylation of ERK1/2 (left panels) and quantified by densitometry (right panels). Data were expressed as mean±standard deviation: *p<0.05, **p<0.01 (n=4).\n(§4) To test the ability of LXW7 to promote endothelialization, we evaluated polymer-based small diameter vascular grafts (ID 1 mm) functionalized with LXW7 via Click chemistry in a rat carotid artery bypass model (FIG. 35). […] After 6 weeks post implantation, 5 out of 6 LXW7-modified grafts were patent versus only 1 out of 6 control grafts was patent (FIG. 35). […] This confirms that LXW7 coating on the luminal surface of synthetic vascular grafts can generate a “living” endothelium."}, "ECs": {"test_system": "ECs", "assay": "Proliferation of ECs on LXW7-treated surfaces (MTS assay)", "assay_type": "cell-based", "details": "surface-grafted LXW7 vs D-biotin control", "from_the_text": "as §3, §4"}, "primary EPCs/ECs": {"test_system": "primary EPCs/ECs", "assay": "LXW7 binding to primary EPCs/ECs", "assay_type": "cell-based", "procedure": "(§5) Using primary artery-derived ECs and blood-derived EPCs as living probes to screen One-Bead-One-Compound (OBOC) combinatorial peptide libraries, several high-affinity binding ligands against the αvβ3 integrin on the surface of EPCs/ECs were identified. […] The LXW7 peptide, when grafted to surfaces, supports adhesion and spreading of EPCs and human coronary ECs, but not platelets or monocytes. Culture plates, 24-well, were coated with 500 μL of 20 μg/mL Avidin for 1 hour at 37° C. followed by washing with PBS and coating with either 500 μL molar equivalents of D-biotin, LXW7-biotin, or GRGD (SEQ ID NO: 2)-biotin. After washing with PBS and blocking with 1% BSA wells were ready for cell attachment with 5×10^4 HCAECs or THP-1 monocytes suspended in the respective maintenance medium, or freshly isolated platelets at a density of 5×10^7 platelets/cm^2 incubated for 16 h at 37° C., 5% CO2. The cells were washed with PBS, and fixed in 10% formalin for 20 min. For evaluation of HCAEC, the cells were blocked with 1% BSA and incubated overnight with mouse anti-CD31 antibody (1:100; Abcam) in 1% BSA at 4° C., followed by probing with goat anti-mouse Alexa Fluor 594 conjugate in 1% BSA. Nuclei were stained with DAPI. Images were captured using an Olympus IX81 microscope. […] Quantification of images was performed using the Image J software (NIH)."}, "THP-1 monocytes [4]": {"test_system": "THP-1 monocytes", "assay": "LXW7 binding to THP-1 monocytes", "assay_type": "cell-based", "procedure": "as §5"}, "platelets [5]": {"test_system": "platelets", "assay": "LXW7 binding to platelets", "assay_type": "cell-based", "procedure": "as §5"}, "HCAECs": {"test_system": "HCAECs", "assay": "Attachment of HCAECs to peptide-treated surfaces", "assay_type": "cell-based, human", "details": "biotin-peptide on Avidin-coated wells", "from_the_text": "as §1, §2"}, "ERK1/2": {"test_system": "ERK1/2", "assay": "Western-blot, phosphorylation of ERK1/2", "assay_type": "cell-based", "details": "surface-grafted LXW7", "from_the_text": "as §3, §4"}, "denuded arteries [6]": {"test_system": "denuded arteries", "assay": "Ossabaw pig angioplasty model, neointimal hyperplasia (1-month recovery)", "assay_type": "in vivo", "details": "with and without stents, vs sham", "procedure": "(§6) An In vivo Ossabaw pig angioplasty model was used to assess platelet deposition (acute) and neointimal hyperplasia (1-month recovery) with DS-SILY treatment. Porous angioplasty balloons were employed for delivery of soluble DS-SILY to the target arteries in the peripheral vasculature of pigs. Renal, femoral, and iliac arteries were denuded by balloon expansion, followed by delivery through the porous balloon. Arteries were treated with and without the use of a bare metal stent and the healing response was assessed for neointimal hyperplasia. Neointimal hyperplasia was assessed by histology after 1-month recovery by measuring the distance between the internal elastic lamina and the lumen, or between a stent post and the lumen (FIG. 32)."}, "EC": {"test_system": "EC", "assay": "EC migration on collagen surfaces", "assay_type": "cell-based"}, "[7]": {"test_system": "platelets (platelet-rich plasma)", "assay": "Platelet binding under flow on collagen-coated microchannels", "assay_type": "cell-based", "details": "PRP, shear rate 750 s^−1, 4 minutes", "procedure": "Flow kits from Ibidi (Martinsried, Germany) were used to measure […] recruitment under flow conditions. Microchannels were coated with equine fibrillar type I collagen (Chronolog, Havertown, PA) diluted in 0.85% sodium chloride and incubated for one hour at room temperature. Unbound collagen was removed by rinsing three time with 1×PBS. The treatment molecule (DS-SILY, LXW7-DS-SILY, or LXW7-(SILY)2) was incubated in the channel for 30 minutes at room temperature, and unbound peptidoglycan was rinsed with 1× PBS.\nNext, 15 mL of blood was drawn into sodium citrate vacutainers by venipuncture and centrifuged for 20 minutes at 200 Gs and 37° C. and the top layer of platelet-rich plasma (PRP) was collected. A syringe pump was used to flow PRP through microchannels at 4.2 mL/hr for a shear rate of 750 s^−1. After 4 minutes, the channels were rinsed with 100 μL, PBS to remove unbound cells. Adherent cells were stained with 10 μM CellTracker Green (ThermoFisher Scientific) in media for 30 minutes at 37° C. Channels were rinsed with 1× PBS and total fluorescence and cell number in the channels were quantified using ImageJ (NIH, Bethesda, MD)."}, "collagen": {"test_system": "collagen", "assay": "DS-SILY binding to collagen"}, "SMCs": {"test_system": "SMCs", "assay": "DS-SILY effects on SMCs", "assay_type": "cell-based"}, "denuded arteries [8]": {"test_system": "denuded arteries", "assay": "Ossabaw pig angioplasty model, platelet deposition (acute)", "assay_type": "in vivo", "details": "vs saline", "procedure": "as §6, with “hyperplasia.” for “hyperplasia. Neointimal hyperplasia was assessed by histology after 1-month recovery by measuring the distance between the internal elastic lamina and the lumen, or between a stent post and the lumen (FIG. 32).”\nArteries for assessing the acute response of balloon injury were harvested within hours of angioplasty. The arteries were rinsed with saline and fixed in 10% formalin overnight, and prepared for SEM visualization. […] High magnification images in FIG. 31 show numerous projections and spreading of platelets on sham control arteries, indicative of platelet activation."}, "platelets [9]": {"test_system": "platelets", "assay": "Platelet binding and activation on a collagen surface in vitro", "assay_type": "cell-based"}}, "note": "“Also recorded” adds a separate entry of the source. Positions of bridges follow the written chain, without caps; N, C: chain ends. Non-standard residues stand in square brackets, D forms with d. No end group written: not given here.", "data": [{"substance": "VEGF", "values": [{"measurement": "monolayer permeability vs untreated controls", "setting": "HMVEC monolayer", "result": "significantly different from untreated controls"}, {"measurement": "vasculogenic activity", "setting": "[1]; 2 μg/mL", "result": "comparable vasculogenic activity"}, {"measurement": "increase in granulation tissue formation", "setting": "ischemic wounds", "result": "up to 150%"}]}, {"substance": "cyclic cGRGDdvc ([dC]GRGD[dD][dV][dC]; disulfide 1-8 (inferred)) [LXW7, cyclic octapeptide ligand against the αvβ3 integrin]", "values": [{"measurement": "platelet binding to treated surface", "setting": "platelets [2]", "result": "not monocyte or platelet binding"}, {"measurement": "monocyte binding to treated surface", "setting": "THP-1 monocytes [3]", "result": "not monocyte or platelet binding"}, {"measurement": "phosphorylation of VEGF2 receptor", "setting": "VEGFR2", "result": "stimulated"}, {"measurement": "surrounding vessel growth", "setting": "[1]; 100 μM eluted from collagen gels", "result": "either decreased or caused no changes in surrounding vessel growth"}, {"measurement": "cell proliferation", "setting": "ECs", "result": "stimulated cell proliferation"}, {"measurement": "binding to primary EPCs/ECs", "setting": "primary EPCs/ECs", "result": "bind strongly"}, {"measurement": "binding to THP-1 monocytes", "setting": "THP-1 monocytes [4]", "result": "does not bind"}, {"measurement": "binding to platelets", "setting": "platelets [5]", "result": "weakly"}, {"measurement": "HCAEC binding to treated surface", "setting": "HCAECs", "result": "supported robust HCAEC binding"}, {"measurement": "phosphorylation of ERK ½", "setting": "ERK1/2", "result": "stimulated"}]}, {"substance": "DS-SILY: antithrombotic proteoglycan mimetic; dermatan sulfate with collagen-binding SILY peptides (RRANAALKAGELYKSILYGSG; not fully specified; also: conjugated to dermatan sulfate backbone, attachment not given here)", "values": [{"measurement": "neointimal hyperplasia", "setting": "denuded arteries [6]", "result": "minimal intimal hyperplasia is observed"}, {"measurement": "promotion of EC migration compared to control collagen surfaces", "setting": "EC", "result": "up to 32%"}, {"measurement": "platelet binding under flow", "setting": "[7]", "result": "low platelet binding"}, {"measurement": "binding to collagen", "setting": "collagen", "result": "high affinity"}, {"measurement": "SMC migration and proliferation", "setting": "SMCs", "result": "suppresses SMC migration and proliferation"}, {"measurement": "inflammatory cytokine production", "setting": "SMCs", "result": "suppresses inflammatory cytokine production"}, {"measurement": "protein production by SMCs", "setting": "SMCs", "result": "suppresses, but does not eliminate protein production by SMCs"}, {"measurement": "platelet activation (morphology) on denuded artery", "setting": "denuded arteries [8]; SEM", "result": "remained largely rounded"}, {"measurement": "platelet binding on denuded artery", "setting": "denuded arteries [8]; delivery through porous balloon after balloon angioplasty", "result": "platelets are scarcely found on the denuded artery; also recorded: almost completely inhibited platelet binding"}, {"measurement": "inhibition of platelet binding and activation on a collagen surface", "setting": "platelets [9]", "result": "~90", "unit": "%"}]}]}
